Reference: publication PMC7430049 (Journal of medicinal chemistry, 2019)
Blank lines part the entries; values can stand above or below the compound they belong to.

What was measured:
human recombinant G9a [1] = molecular target: T1, human recombinant G9a (Homo sapiens, UniProt Q96KQ7); test: Mechanism of action kinetics, AlphaLISA G9a assay, Lineweaver-Burk plots; format: biochemical; settings: fixed H3 peptide 100 nM, varying SAM
T1 sequence (Q96KQ7 1-1210): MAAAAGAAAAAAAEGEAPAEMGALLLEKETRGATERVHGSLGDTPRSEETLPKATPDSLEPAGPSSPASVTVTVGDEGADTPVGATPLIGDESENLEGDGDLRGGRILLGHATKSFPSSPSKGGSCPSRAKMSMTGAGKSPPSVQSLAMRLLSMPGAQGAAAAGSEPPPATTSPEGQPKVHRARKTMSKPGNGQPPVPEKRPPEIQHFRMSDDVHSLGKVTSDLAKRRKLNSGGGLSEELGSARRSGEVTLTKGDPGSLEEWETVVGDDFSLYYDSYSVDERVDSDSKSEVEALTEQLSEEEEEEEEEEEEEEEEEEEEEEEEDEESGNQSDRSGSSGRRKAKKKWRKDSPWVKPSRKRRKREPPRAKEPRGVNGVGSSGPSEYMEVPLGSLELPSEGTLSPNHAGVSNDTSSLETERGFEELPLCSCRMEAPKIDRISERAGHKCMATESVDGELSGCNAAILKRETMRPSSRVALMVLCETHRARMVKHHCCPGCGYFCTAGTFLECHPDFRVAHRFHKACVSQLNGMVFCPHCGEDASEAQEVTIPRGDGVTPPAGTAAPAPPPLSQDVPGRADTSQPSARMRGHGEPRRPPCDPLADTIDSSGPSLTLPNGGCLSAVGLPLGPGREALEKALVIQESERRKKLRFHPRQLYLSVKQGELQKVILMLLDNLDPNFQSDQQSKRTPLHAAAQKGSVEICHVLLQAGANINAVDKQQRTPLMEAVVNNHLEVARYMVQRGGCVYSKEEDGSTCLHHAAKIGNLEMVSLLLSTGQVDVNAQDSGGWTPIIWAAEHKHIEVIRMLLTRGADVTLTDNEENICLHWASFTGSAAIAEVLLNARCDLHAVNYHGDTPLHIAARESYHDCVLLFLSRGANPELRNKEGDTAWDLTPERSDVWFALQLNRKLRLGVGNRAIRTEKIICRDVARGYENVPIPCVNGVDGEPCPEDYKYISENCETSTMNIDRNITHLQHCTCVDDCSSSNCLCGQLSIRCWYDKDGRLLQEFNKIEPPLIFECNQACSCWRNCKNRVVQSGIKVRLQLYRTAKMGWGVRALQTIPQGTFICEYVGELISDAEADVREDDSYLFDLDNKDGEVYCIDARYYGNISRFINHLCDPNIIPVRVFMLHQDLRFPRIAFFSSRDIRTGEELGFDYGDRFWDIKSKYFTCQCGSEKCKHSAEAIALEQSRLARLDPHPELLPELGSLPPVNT

[2] = Chemical stability in PBS, HPLC analysis; format: physicochemical; settings: exposure to PBS over 72 h
[3] = tested on: H3K9me2 levels in MDA-MB-231 cells; test: Western blot of H3K9me2 in histone extracts, MDA-MB-231; format: cell-based, human; settings: 0.5 and 5 μM, 48 and 72 h
human recombinant p300 = human recombinant p300 (Homo sapiens, UniProt Q09472); test: KAT3B/p300 inhibition, AlphaLISA assay; format: biochemical; settings: tested at 10 and 25 μM
Chain of human recombinant p300 (Q09472 whole entry): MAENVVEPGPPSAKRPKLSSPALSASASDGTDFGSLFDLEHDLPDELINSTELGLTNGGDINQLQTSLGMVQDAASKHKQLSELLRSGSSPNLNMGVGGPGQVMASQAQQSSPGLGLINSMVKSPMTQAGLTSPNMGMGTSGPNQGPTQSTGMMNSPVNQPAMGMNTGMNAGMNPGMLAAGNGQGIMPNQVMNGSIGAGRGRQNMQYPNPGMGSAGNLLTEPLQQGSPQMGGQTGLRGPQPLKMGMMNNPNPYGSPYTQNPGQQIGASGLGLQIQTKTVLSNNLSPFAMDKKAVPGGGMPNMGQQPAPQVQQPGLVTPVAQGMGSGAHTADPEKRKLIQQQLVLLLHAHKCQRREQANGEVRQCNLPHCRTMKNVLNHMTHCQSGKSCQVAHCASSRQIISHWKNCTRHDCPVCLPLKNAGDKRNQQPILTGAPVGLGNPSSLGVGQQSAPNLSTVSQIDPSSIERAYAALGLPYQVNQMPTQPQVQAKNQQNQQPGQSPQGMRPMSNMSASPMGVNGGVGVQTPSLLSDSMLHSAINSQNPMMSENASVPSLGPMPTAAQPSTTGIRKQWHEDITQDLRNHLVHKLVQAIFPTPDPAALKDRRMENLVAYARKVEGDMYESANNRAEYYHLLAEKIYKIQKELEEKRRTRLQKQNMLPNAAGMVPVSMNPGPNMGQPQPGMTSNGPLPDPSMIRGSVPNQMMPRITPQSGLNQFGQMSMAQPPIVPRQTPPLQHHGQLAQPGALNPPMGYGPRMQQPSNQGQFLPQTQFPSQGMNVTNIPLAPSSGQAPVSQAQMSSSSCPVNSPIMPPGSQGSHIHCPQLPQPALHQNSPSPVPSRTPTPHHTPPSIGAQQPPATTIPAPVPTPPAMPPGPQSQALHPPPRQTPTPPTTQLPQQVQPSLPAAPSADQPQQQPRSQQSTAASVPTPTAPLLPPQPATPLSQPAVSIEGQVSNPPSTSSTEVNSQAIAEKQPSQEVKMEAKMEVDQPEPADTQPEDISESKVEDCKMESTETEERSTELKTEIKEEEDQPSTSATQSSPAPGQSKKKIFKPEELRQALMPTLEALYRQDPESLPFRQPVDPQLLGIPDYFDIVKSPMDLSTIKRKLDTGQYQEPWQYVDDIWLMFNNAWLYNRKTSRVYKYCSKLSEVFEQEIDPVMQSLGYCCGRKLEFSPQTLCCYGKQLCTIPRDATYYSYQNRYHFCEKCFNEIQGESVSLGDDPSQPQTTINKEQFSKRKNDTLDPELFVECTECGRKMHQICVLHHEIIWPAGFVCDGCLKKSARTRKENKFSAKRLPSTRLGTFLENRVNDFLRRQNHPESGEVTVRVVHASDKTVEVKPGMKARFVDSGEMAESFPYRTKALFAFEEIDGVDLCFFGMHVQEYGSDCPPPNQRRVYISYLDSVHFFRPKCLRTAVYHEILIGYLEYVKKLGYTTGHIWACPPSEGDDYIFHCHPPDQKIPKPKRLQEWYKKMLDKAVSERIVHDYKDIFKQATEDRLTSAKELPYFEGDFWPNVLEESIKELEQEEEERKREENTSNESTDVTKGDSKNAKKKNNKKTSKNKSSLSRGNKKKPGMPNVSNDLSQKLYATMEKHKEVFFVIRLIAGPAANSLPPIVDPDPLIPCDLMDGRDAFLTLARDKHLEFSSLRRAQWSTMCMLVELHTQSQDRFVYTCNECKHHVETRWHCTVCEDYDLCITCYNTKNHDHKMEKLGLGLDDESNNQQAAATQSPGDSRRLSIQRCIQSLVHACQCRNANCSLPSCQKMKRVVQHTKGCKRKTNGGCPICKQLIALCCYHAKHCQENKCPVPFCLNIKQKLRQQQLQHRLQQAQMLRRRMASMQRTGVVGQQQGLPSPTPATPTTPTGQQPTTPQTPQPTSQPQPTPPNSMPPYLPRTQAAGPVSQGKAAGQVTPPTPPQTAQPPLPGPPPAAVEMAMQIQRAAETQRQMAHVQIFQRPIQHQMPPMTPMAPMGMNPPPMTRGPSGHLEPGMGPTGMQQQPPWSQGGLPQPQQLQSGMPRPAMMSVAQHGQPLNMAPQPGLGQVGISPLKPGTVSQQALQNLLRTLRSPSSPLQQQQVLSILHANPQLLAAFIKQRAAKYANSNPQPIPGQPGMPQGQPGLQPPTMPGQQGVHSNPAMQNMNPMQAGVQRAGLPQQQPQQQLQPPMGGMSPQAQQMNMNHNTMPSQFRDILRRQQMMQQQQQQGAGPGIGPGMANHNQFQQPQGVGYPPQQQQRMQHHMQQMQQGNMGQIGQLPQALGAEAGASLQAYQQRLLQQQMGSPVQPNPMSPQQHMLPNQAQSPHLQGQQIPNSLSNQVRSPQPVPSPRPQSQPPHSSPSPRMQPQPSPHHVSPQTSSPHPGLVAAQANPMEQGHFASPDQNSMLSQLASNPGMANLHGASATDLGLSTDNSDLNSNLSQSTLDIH

human recombinant G9a [4] = molecular target: T1, human recombinant G9a; test: G9a inhibition, peptide-based AlphaLISA assay; format: biochemical; settings: for Hill slope of the concentration–response inhibition curve of G9a: AlphaLISA, four-parameter fit; for fold reduction of G9a inhibitory activity compared to 12a: relative to 12a, from Table 1 IC50
[5] = tested on: H3K9me2 levels in MCF-7 cells; test: Western blot of H3K9me2 in histone extracts, MCF-7; format: cell-based, human; settings: 0.5 and 5 μM, 48 and 72 h
MDA-MB-231 cells = test: MTT cell viability assay, MDA-MB-231; format: cell-based, human; settings: up to 5 μM, even after 72 h, vs vehicle
U-343 cells = test: MTT cell viability assay, U-343; format: cell-based, human; settings: up to 5 μM, even after 72 h, vs vehicle
human recombinant KDM4A = molecular target: T2, human recombinant KDM4A (Homo sapiens, UniProt O75164); test: KDM4A/JMJD2A inhibition, AlphaLISA assay; format: biochemical; settings: tested at 10 and 25 μM
T2 sequence (O75164 1-1064): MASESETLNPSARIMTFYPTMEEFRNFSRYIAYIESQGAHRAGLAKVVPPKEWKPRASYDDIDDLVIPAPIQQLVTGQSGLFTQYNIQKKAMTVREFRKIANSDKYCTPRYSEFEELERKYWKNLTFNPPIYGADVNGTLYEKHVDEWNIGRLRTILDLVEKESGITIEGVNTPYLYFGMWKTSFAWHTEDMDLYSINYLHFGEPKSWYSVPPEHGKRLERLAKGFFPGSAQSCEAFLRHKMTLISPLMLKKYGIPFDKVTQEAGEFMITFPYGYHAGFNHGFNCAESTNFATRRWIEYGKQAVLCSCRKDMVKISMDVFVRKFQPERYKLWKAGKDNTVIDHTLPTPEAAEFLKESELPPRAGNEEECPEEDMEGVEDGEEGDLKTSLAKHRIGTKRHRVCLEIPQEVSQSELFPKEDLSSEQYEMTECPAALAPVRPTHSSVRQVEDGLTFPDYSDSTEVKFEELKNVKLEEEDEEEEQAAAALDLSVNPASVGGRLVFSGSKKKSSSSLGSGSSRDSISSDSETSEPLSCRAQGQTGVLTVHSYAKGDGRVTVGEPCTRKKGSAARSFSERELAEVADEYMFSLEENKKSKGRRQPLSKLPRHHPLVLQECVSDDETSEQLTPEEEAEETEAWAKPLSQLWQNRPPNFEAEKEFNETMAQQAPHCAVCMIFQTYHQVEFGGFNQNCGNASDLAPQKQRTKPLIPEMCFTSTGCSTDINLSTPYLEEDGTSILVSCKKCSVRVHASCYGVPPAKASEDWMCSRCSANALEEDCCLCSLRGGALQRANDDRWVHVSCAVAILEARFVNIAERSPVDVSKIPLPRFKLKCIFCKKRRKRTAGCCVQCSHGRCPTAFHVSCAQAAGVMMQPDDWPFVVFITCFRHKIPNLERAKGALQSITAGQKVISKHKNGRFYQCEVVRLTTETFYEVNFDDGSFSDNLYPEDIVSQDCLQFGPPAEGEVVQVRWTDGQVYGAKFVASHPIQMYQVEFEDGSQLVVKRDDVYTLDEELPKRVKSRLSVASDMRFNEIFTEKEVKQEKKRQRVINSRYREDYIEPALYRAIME

G9a [6] = molecular target: T3, G9a (Homo sapiens, UniProt Q96KQ7); test: Surface plasmon resonance; format: binding
T3 sequence (Q96KQ7 913-1193 limits assumed): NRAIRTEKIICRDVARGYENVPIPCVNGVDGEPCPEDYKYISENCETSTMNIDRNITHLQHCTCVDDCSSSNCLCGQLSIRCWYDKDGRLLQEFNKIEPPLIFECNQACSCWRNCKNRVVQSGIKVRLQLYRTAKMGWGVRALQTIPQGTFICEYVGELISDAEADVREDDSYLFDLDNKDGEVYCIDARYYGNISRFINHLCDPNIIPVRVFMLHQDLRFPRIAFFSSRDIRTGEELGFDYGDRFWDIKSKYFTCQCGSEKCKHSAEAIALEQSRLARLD

human recombinant PRMT1 = human recombinant PRMT1 (Homo sapiens, UniProt Q99873); test: PRMT1 inhibition, AlphaLISA assay; format: biochemical; settings: tested at 10 and 25 μM
Chain of human recombinant PRMT1 (Q99873 whole entry): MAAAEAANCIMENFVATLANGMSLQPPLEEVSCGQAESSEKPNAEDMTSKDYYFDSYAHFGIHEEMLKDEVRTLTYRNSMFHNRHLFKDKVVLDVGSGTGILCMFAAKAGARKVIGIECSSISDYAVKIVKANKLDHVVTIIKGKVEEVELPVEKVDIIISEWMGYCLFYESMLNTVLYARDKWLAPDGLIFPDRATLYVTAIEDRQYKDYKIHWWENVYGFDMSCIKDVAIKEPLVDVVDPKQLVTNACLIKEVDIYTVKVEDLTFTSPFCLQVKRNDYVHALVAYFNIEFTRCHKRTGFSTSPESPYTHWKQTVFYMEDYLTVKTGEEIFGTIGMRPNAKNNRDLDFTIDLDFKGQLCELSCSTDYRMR

human recombinant PRMT3 = human recombinant PRMT3 (Homo sapiens, UniProt O60678); test: PRMT3 inhibition, AlphaLISA assay; format: biochemical; settings: tested at 10 and 25 μM
Chain of human recombinant PRMT3 (O60678 whole entry): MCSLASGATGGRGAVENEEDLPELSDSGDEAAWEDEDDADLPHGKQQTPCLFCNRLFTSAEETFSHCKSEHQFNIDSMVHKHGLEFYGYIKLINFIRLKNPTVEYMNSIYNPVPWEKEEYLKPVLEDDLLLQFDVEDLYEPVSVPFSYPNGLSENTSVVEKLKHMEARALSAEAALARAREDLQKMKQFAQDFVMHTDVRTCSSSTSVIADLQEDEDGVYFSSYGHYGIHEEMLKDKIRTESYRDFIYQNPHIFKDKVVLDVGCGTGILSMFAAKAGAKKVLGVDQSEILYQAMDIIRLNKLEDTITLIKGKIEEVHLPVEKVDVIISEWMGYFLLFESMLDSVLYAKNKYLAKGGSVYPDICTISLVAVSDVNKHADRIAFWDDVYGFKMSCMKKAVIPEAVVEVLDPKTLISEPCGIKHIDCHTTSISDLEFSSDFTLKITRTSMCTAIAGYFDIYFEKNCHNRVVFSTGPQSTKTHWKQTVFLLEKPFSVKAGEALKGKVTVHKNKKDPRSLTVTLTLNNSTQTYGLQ

MCF-7 cells = test: MTT cell viability assay, MCF-7; format: cell-based, human; settings: 0.05–50 μM; 24, 48, 72 h
[7] = tested on: H3K9me2 levels in U-343 cells; test: Western blot of H3K9me2 in histone extracts, U-343; format: cell-based, human; settings: 0.5 and 5 μM, 48 and 72 h
human DNMT3a = human DNMT3a (Homo sapiens, UniProt Q9Y6K1); test: HotSpot DNMT activity assay; format: biochemical; settings: lambda DNA substrate
Chain of human DNMT3a (Q9Y6K1 2-912 limits assumed): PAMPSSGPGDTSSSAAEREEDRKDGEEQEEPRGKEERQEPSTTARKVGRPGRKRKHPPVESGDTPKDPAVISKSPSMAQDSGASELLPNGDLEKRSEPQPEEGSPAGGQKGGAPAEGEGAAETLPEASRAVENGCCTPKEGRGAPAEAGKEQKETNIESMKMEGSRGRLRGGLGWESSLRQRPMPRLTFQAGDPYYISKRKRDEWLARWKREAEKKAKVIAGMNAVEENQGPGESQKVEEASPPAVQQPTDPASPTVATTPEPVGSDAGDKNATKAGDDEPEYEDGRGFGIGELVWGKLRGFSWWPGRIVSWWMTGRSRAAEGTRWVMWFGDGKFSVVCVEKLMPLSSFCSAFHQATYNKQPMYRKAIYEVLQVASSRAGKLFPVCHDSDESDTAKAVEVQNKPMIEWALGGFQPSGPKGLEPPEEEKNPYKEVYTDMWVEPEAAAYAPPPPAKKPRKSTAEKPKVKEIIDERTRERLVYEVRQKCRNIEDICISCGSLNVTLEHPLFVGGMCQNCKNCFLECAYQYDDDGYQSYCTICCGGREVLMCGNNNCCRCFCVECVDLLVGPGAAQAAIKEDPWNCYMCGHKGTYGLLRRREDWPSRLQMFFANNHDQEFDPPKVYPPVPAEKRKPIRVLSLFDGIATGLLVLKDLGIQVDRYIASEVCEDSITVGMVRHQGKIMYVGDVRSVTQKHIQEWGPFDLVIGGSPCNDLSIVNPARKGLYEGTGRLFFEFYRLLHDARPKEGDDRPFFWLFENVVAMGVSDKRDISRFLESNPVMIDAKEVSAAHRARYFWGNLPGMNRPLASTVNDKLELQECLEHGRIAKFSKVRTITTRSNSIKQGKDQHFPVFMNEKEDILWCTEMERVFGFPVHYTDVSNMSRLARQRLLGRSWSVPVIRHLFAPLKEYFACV

[8] = molecular target: full-length human recombinant DNMT3b (Homo sapiens, UniProt Q9UBC3); test: HotSpot DNMT activity assay; format: biochemical; settings: lambda DNA substrate
[9] = tested on: protein arginine methyltransferase 1 (PRMT1); settings: up to a 10 μM concentration; cited from earlier work
[10] = tested on: lysine N-methyltransferase SUV39H1(H320R); settings: up to a 10 μM concentration; cited from earlier work
G9a [11] = molecular target: T3, G9a; settings: read-out: G9a IC50 (ECSD assay); ECSD assays; cited from earlier work
G9a [12] = molecular target: T3, G9a; settings: read-out: Morrison Ki, G9a; cited from earlier work
[13] = tested on: other lysine and arginine methyltransferases; settings: up to a 10 μM concentration; cited from earlier work
in vitro = settings: PAMPA, pH 7.4
[14] = Parallel artificial membrane permeability assay; format: in vitro ADME; settings: PAMPA, pH 7.4
GLP over G9a = settings: biochemical assays; cited from earlier work

α Ki, noncompetitive against SAM (human recombinant G9a [1]): 1.1 ± 0.2 nM | chemical stability (HPLC) [2]: did not decompose | p300 inhibition (in words) (human recombinant p300): only poorly (or not at all) inhibited | Hill slope of the concentration–response inhibition curve of G9a (human recombinant G9a [4]): −2.7 | JMJD2A inhibition (in words) (human recombinant KDM4A): only poorly (or not at all) inhibited | Kd (G9a [6]): 63800 ± 950 nM | PRMT1 inhibition (in words) (human recombinant PRMT1): only poorly (or not at all) inhibited | PRMT3 inhibition (in words) (human recombinant PRMT3): only poorly (or not at all) inhibited | DNMT3a inhibition (in words) (human DNMT3a): inactive | DNMT3b inhibition (in words) [8]: inactive
SMILES: COc1cc2c(cc1OCCCN1CCCC1)N=C(C1CCCCC1)CN=C2NC1CCN(C(C)C)CC1 [12a, 2-Cyclohexyl-N-(1-isopropylpiperidin-4-yl)-7-methoxy-8-(3-(pyrrolidin-1-yl)propoxy)-3H-benzo[e][1,4]diazepin-5-amine]
dimethylation of lysine H3K9 (H3K9me2), MDA-MB-231 [3]: marked and both concentration- and time-dependent reduction | dimethylation of lysine H3K9 (H3K9me2), MCF-7 [5]: marked and both concentration- and time-dependent reduction | cell toxicity (MTT), MDA-MB-231 (MDA-MB-231 cells): did not significantly reduce the number of metabolically active MDA-MB-231 or U-343 cells | cell toxicity (MTT), U-343 (U-343 cells): did not significantly reduce the number of metabolically active MDA-MB-231 or U-343 cells | cell toxicity (MTT), MCF-7 (MCF-7 cells): slight progressive increase of toxicity after 48 and 72 h | dimethylation of lysine H3K9 (H3K9me2), U-343 [7]: marked and both concentration- and time-dependent reduction

fold reduction of G9a inhibitory activity compared to 12a (human recombinant G9a [4]): approximately 50 fold
SMILES: COc1cc2c(cc1OCCCN1CCCC1)NC(C1CCCCC1)CN=C2NC1CCN(C(C)C)CC1 (centres unmarked) [13a, 2-Cydohexyl-N-(1-isopropylpiperidin-4-yl)-7-methoxy-8-(3-(pyrrolidin-1-yl)propoxy)-2,3-dihydro-1H-benzo[e][1,4]-diazepin-5-amine]

Hill slope of the concentration–response inhibition curve of G9a (human recombinant G9a [4]): −1.3 | Papp at 24 h, 0.2 mM (in vitro): 0.019 ×10⁻⁶ cm/s | Papp at 24 h, 0.2 mM [14]: 0.049 ×10⁻⁶ cm/s
SMILES: COc1cc2c(NC3CCN(C(C)C)CC3)nc(C3CCCCC3)nc2cc1OCCCN1CCCC1 [compound 7]
activity against other lysine and arginine methyltransferases [13]: inactive

fold reduction of G9a inhibitory activity compared to 12a (human recombinant G9a [4]): 130 fold
SMILES: COc1cc2c(cc1OCCCN1CCCC1)N=C(C1CCCCC1)CC(NC1CCN(C(C)C)CC1)=N2 [compound 14, 4-Cyclohexyl-N-(1-isopropylpiperidin-4-yl)-8-methoxy-7-(3-(pyrrolidin-1-yl)propoxy)-3H-benzo[b][1,4]diazepin-2-amine]

The remaining lines, values behind:

SMILES: COc1cc2c(cc1OCCCN1CCCC1)N=C(c1ccccc1)CN=C2NC1CCN(C(C)C)CC1 [12b, N-(1-Isopropylpiperidin-4-yl)-7-methoxy-2-phenyl-8-(3-(pyrrolidin-1-yl)propoxy)-3H-benzo[e][1,4]diazepin-5-amine]
fold reduction of G9a inhibitory activity compared to 12a (human recombinant G9a [4]): approximately 50 fold

SMILES: COc1cc2c(cc1OCCCN1CCCC1)NC(c1ccccc1)CN=C2NC1CCN(C(C)C)CC1 (centres unmarked) [13b, N-(1-Isopropylpiperidin-4-yl)-7-methoxy-2-phenyl-8-(3-(pyrrolidin-1-yl)propoxy)-2,3-dihydro-1H-benzo[e][1,4]-diazepin-5-amine]
fold reduction of G9a inhibitory activity compared to 12a (human recombinant G9a [4]): 100 fold

SMILES: COc1cc2nc(N3CCCN(C)CC3)nc(NC3CCN(Cc4ccccc4)CC3)c2cc1OC [compound 3]
activity against PRMT1 [9]: basically inactive | activity against SUV39H1(H320R) [10]: basically inactive

SMILES: COc1cc2c(NC3CCN(C)CC3)nc(N3CCCN(C)CC3)nc2cc1OCCOCCN(C)C [compound 5]
IC50 (G9a [11]): 9 nM | Ki (G9a [12]): 0.063 nM

SMILES: CCCCCCNc1nc(NC2CCN(C)CC2)c2cc(OC)c(OC)cc2n1 [compound 9]
selectivity for GLP over G9a (GLP over G9a): > 140 fold
